Results reported in US8361779B2, “Buffer compounds” (Sachem, Inc., priority 2010, dated 2013).
Entries after “also recorded” stand apart in the source; their conditions may differ. Counter-ions that a name gives are not always drawn. Like-named read-outs stand apart in the source and are kept apart here.

Tests used:
[1] = Est. pKa of Table 1 compounds (approximate measurements of pKa-values); type: physicochemical; settings: for pKa: aqueous 80 mM KCl solution (pH titration with 100 mM KOH)
Method: This method is used when nonreactive impurities are >5% (HPLC), when reactive impurities are >1% (HPLC), when insufficient buffer is available or when noticeably poor curve fitting is seen in the above method. The experimental method is nearly the same as the above method, but the experimental volume-pH data are processed differently. Usually, only one or two titrations are carried out. The pKa is estimated to be the same as the pH of the titration curve at the half-equivalence point. The estimated pKa values can be as good at ±0.1 or as poor as ±0.5 depending on the nature and amounts of impurities.

[2] = pKa values quoted for buffers (buffer combinations table); type: physicochemical; settings: for pKa: aqueous solution, read-out: pKa of buffer in cationic/anionic buffer combinations; for pKa / pKa of buffer in cationic/anionic buffer combinations: 25° C., ionic-strength 0.10 unless otherwise specified (b6)
Text: pH is a measurement of solvated hydrogen-ion activity, which is directly related to hydrogen ion concentration: −log [H^+]. […] Activity is a defined thermodynamic term and is related to concentration. At low concentration and low ionic-strength, activity approximately equals concentration. […] Such pKa values are more applicable to practical conditions than are thermodynamic pKa values where μ≈0. […] Initially, approximately equal concentrations are chosen.

[3] = Precision measurements of pKa-values by pH titration; type: physicochemical; settings: titrated with 100 mM KOH, six titrations, 25° C., ionic-strength 0.10 unless otherwise specified (b6); for Meas. pKa: 10 mM buffer, 80 mM KCl
Method: High purity analytical quality reagents are used in these studies: potassium chloride, potassium hydroxide, primary standard potassium acid phthalate (KAP, Baker), 18 meg-ohm deionized doubly-distilled water (CO2-free). […] They are dried in a vacuum oven at 50° C. for 18-24 hours and stored in a glass desiccator over P2O5. The only remaining impurities are inert water/solvent and traces of residual HCl or HBr. Most buffers are stable in atmospheric air; a few are somewhat hygroscopic. During the weighing of the buffer compounds, care is taken to prevent or minimize absorption of atmospheric moisture. Solutions containing 10 mM buffer and 80 mM KCl are carefully prepared using degassed, deionized water and standardized volumetric flasks. Six independent pH titrations are carried out for each buffer compound using 100 mM carbonate-free KOH that is carefully standardized against KAP.
The titrator is controlled and data collected by LabX Titration software, version 2.5. The titration cell is thermostatically controlled at 10.00±0.05° C., 25.00±0.05° C. or 40.00±±0.05° C. Temperatures are measured using a NIST-traceable mercury thermometer. Titrations are adjusted so that the endpoint is close to 5 mL delivery point of the burette. Incremental titrations are carried out with increment volume of 100 μl and with continuous stirring; the system is allowed to settle after each incremental addition (10-30 sec) before a reading is recorded. Accurate, NIST-traceable buffers (±0.001 pH unit) with accurately known values at 2, 4, 7, 10, 12 in the temperature range 10-40° C. are used (Oakton Instruments, Vernon Hills, Ill.). The electrode is calibrated at pH=2, 4, 10 and 12. The pH=7 buffer is independently measured. If the pH=7 measurement is accurate to ±0.002 pH unit, a titration is carried out; if not, the calibration is repeated. A pH calibration is carried out before each titration experiment. […]

[4] = tested on: Escherichia coli, Pseudomonas fluorescens, Pichia pastoris, Saccharyomyces cerevisiae; test: Microbial growth-inhibition assays, all four organisms; type: cell-based; settings: for comparative growth behaviour between buffers: all four organisms, pH 7.0; for order of growth inhibition at higher concentrations: standard buffers
Method: (§1) Microbial growth inhibition assays are carried out 96-well plates with well volume of 400 μL. In the present inventors' hands, data obtained in this manner are almost equivalent to that obtained in traditional shake flasks while data collection is more accurate and convenient. Two calibrated plate readers are used so that two plates, corresponding to a single organism, could be read at the same time. Each plate contains 80 cells for one organism and four buffers each at five concentrations (25, 50, 100, 225, 500 mM) with each buffer-concentration combination (20) being replicated four-fold. Each of these cells contained 50 μL of a fresh, calibrated cell culture plus 250 μL fresh sterile cell culture. In addition, each plate contained eight identical cells with 250 μL sterile, buffer-free growth medium plus 50 μL fresh cell culture and eight cells with 300 μL sterile growth medium and no organism. Microbial growth is measured by light-scattering/absorbance measurements at 600 nm every 15-60 minutes for the prescribed period. Every 15 minutes, each plate undergoes agitation/vibration which resuspends the organisms and promotes aeration; this process is repeated just prior to each absorbance reading. For each medium, six bottles of sterile media are prepared, one for each buffer concentration (0, 30, 60, 120, 270, 600 mM) so that when each is diluted in the plate, the desired concentrations will be obtained. The media components (see below), added buffer and water are mixed, and the pH is adjusted to the proper value. Each bottle of medium is heat sterilized (121° C., 15 psig, 20 minutes), cooled and, if necessary, the pH is readjusted to the proper value in a sterile fashion with 37% HCl or 50% NaOH.
Based upon prior experience with these organisms, a series of microbial growth measurements are carried out to determine optimal growth conditions. Four different media compositions unique to each organism each at four pH values (6.0, 6.5, 7.0, 7.5) are measured at three temperatures (23° C., 30° C., 37° C.). Fortunately, combinations of near optimal growth conditions have been found so that the same pH of 7.0±0.1 could be used for all four organisms that are listed below:
Compositions of growth media are listed below for one liter of medium. pH is adjusted to 7.0±0.1 both before and after heat sterilization. Similar growth results are obtained when the added cationic buffer is added before heat-sterilization and after heat-sterilization via sterile filtration. Several useful growth media containing methanol are known for Pichia, but ME broth is equally good under the current conditions, and then evaporation of methanol is not a problem. Amounts below are given as g/L in sterilized growth medium.
The bacterial and yeast strains are grown up and counted several times in each respective growth medium obtain fresh, stable, reproducible cultures of known density as a function of time. Microbial counting is carried out in the usual fashion by using serial dilutions followed by plate counting. Each culture is diluted and plated three times, and the values are averaged. When a culture reaches the proper microbial density (cfu/mL), two 96-well plates are quickly loaded as described above, and plate reading is started using two matched plate readers.

[5] = tested on: Pseudomonas fluorescens ATCC 19020; test: Microbial growth-inhibition assay, P. fluorescens; type: cell-based; settings: 30° C., PM broth
Method: as §1, with “For each medium, six bottles of sterile media are prepared, one for each buffer concentration (0, 30, 60, 120, 270, 600 mM) so that when each is diluted in the plate, the desired concentrations will be obtained. The media components (see below), added buffer and water are mixed, and the pH is adjusted to the proper value.” left out
Based upon prior experience with these organisms, a series of microbial growth measurements are carried out to determine optimal growth conditions. Four different media compositions unique to each organism each at four pH values (6.0, 6.5, 7.0, 7.5) are measured at three temperatures (23° C., 30° C., 37° C.). […]
The bacterial and yeast strains are grown up and counted several times in each respective growth medium obtain fresh, stable, reproducible cultures of known density as a function of time. […] When a culture reaches the proper microbial density (cfu/mL), two 96-well plates are quickly loaded as described above, and plate reading is started using two matched plate readers.

[6] = Change in pKa of amine caused by proximal quaternary ammonium group; type: physicochemical
Text: The presence of a quaternary ammonium (quat) group in a molecule that also contains an amine group will reduce the pKa of the amine as measured in aqueous media and polar nonaqueous media. […] All three effects as described will generally lead to some reduction of observed pKa in the molecule of interest. […] The amount of reduction in pKa depends on (1) the number of quat groups, (2) the distance of the quat group(s) from the amine and (3) the rigidity of the molecule that holds the quat group and amine in more fixed position with regard to each other.

[7] = single value, read-out: Est. pKa
[8] = HEPES, buffer combinations table
[9] = relative to trimethylamine, water at 25° C., μ=0.1, approximate numbers

1,1,5,9-tetramethyl-2-hydroxy-5,9-bis(2-sulfoethyl)-1,5,9-triazanonane di-inner salt [Compound 82]
Est. pKa, second of two values ([1]; wide-range buffer, higher pKa): ~8.0 | Est. pKa, first of two values ([1]; wide-range buffer, lower pKa): ~6.5

OB(O)O [Boric Acid]
pKa [2]: 9

O=S(=O)(O)CCNC1CCCCC1 [CHES (H+)]
pKa of buffer in cationic/anionic buffer combinations [2]: 9.4

C[N+](C)(C)CC(O)CC(=O)[O-] (centres unmarked) [Carnitine HCl]
pKa ([3]; aqueous solution of 10 mM buffer and 80 mM KCl, read-out: Meas. pKa): 3.83

CN(C)CC(O)C[N+](C)(C)C.[Cl-] (centres unmarked) [Compound 8]
comparative growth behaviour between buffers [4]: is better than TRIS | pKa quoted in comparison of buffers with similar pKa values [2]: 7.9 | comparative growth of Pseudomonas [5]: DEAGA and MEAGA are clearly better than DIMEGA and DEGA

CCN(CC)CC(O)C[N+](C)(C)C.[Cl-] (centres unmarked) [Compound 10, N-(2-hydroxy-3-trimethylammonium-propyl)diethylamine chloride]
comparative growth behaviour between buffers [4]: TAPS (8.4) is better than DEGA | pKa quoted in comparison of buffers with similar pKa values [2]: 8.5 | comparative growth of Pseudomonas [5]: DEAGA and MEAGA are clearly better than DIMEGA and DEGA

C[N+](C)(C)CC(O)CNC(CO)(CO)CO (centres unmarked) [Compound 19a]
pKa [1, 7]: ~5.8

CN(CCO)CC[N+](C)(C)CCO [Compound 20a]
pKa [1, 7]: ~5.2

CCN(CC)CC[N+](C)(CC)CC [Compound 28a]
pKa [1, 7]: ~6.7

CN(C)CCC[N+](C)(C)C.Cl.[Cl-] [Compound 29a, (3-trimethylammoniumpropyl) dimethylamine chloride hydrochloride]
Est. pKa ([1]; single value): ~8.1

CCN(CC)CCC[N+](C)(CC)CC [Compound 30a]
pKa [1, 7]: ~8.7

CCN(CC)CCCCCC[N+](C)(CC)CC [Compound 34a]
pKa [1, 7]: ~10.1

C[N+](C)(C)CC(O)CN(CCO)CCCS(=O)(=O)[O-] (centres unmarked) [Compound 51, N-(2-hydroxy-3-trimethylammoniumpropyl)-N-(2-hydroxyethyl)homotaurine inner salt]
Est. pKa ([1]; single value): ~6.4

CN(C)CCC[N+](C)(C)CCCS(=O)(=O)[O-] [Compound 57, N,N,N′,N′-tetramethyl-N-(3-sulfopropyl)-1,3-propanediamine Inner salt]
Est. pKa ([1]; single value): ~8.1

CN(C)CC(O)C[N+](C)(CCCN(C)CCS(=O)(=O)O)CCS(=O)(=O)[O-] (centres unmarked) [Compound 59]
pKa ([1]; wide-range buffer, higher pKa, read-out: Est. pKa, second of two values): ~8 | pKa ([1]; wide-range buffer, lower pKa, read-out: Est. pKa, first of two values): ~6.5

CN(C)CCC[N+](C)(C)CCCP(=O)([O-])O [Compound 60, N,N,N′,N′-tetramethyl-N-(3-phosphonopropyl)-1,3-propanediammonium di-Inner salt]
Est. pKa, second of two values ([1]; wide-range buffer, higher pKa): ~8.2 | Est. pKa, first of two values ([1]; wide-range buffer, lower pKa): ~6.8

CN(CCCS(=O)(=O)O)CC[N+](C)(C)CCCS(=O)(=O)[O-] [Compound 66, N,N′,N′-trimethyl-N,N′-bis(3-sulfopropyl)ethylenediammonium di-inner salt]
Est. pKa ([1]; single value): ~5.5

CCN(C(C)C)C1CC[N+](CC)(CC)CC1 [Compound 74a]
pKa [1, 7]: ~7.4

Br.CN(C)C(=NCCC[N+](C)(C)C)N(C)C.[Br-] [Compound 76, 2-(3-trimethylammoniumpropyl)-1,1,3,3-tetramethylguanidine bromide hydrobromide]
Est. pKa ([1]; single value): ~12.9

CN1CCN(C)C1=NCC[N+](C)(C)C.Cl.[Cl-] [Compound 77, N(2-(1′,3′-dimethylimidazoline-2′-iminato)ethyl)trimethyl-ammonium chloride hydrochloride]
Est. pKa ([1]; single value): ~11.1

C[N+](C)(C)CC(O)CNCCO.Cl.[Cl-] (centres unmarked) [Compound 78a, N-(3-trimethylammonium-2-hydroxypropyl)ethanolamine chloride hydrochloride]
Est. pKa ([1]; single value): ~7.8

Br.CCOP(=O)(CCC[N+](C)(C)CCCN(C)C)OCC.[Br-] [Compound 79a, N,N,N′,N′-tetramethyl-N-(3-diethylphosphonopropyl)-1,3-propanediamine diethyl ester bromide•hydrobromide]
Est. pKa ([1]; single value): ~8.1

CN(CCC[N+](C)(CCS(=O)(=O)[O-])CC(O)C[N+](C)(C)Cc1ccccc1)CCS(=O)(=O)[O-] (centres unmarked) [Compound 81, 1-benzyl-1,1,5,9-tetramethyl-3-hydroxy-5,9-bis(2-sulfoethyl)-1,5,9-triazanonane, di-inner salt]
Est. pKa ([1]; single value): ~6.1

O=S(=O)(O)CCN1CCN(CCO)CC1 [HEPES]
pKa1 [2, 8]: 3.0 | pKa2 [2, 8]: 7.5

O=S(=O)(O)CCN1CCOCC1 [MES]
comparative growth behaviour between buffers [4]: about the same behavior

O=S(=O)(O)CCCN1CCOCC1 [MOPS]
Meas. pKa [3]: 7.099

COCC(=O)O [Methoxyacetic Acid]
pKa [2]: 3.3

CN1CCC[N+](C)(C)CC1 [N,N′,N′-Me3-Homopiperazinium^+]
Change in pKa of Me2N— [6, 9]: ~−3.6 log K units

CN1CC[N+](C)(C)CC1 [N,N′,N′-Me3-Piperazinium^+]
Change in pKa of Me2N— [6, 9]: ~−5.5 log K units

C[N+]12CCN(CC1)CC2 [N-Me-Diazabicyclo[2.2.2]octane^+]
Change in pKa of Me2N— [6]: ~−6.7 log K units

O=S(=O)(O)CCCNC(CO)(CO)CO [TAPS]
comparative growth behaviour between buffers [4]: consistently the best of all eight buffers tested; also recorded: is better than DEGA | order of growth inhibition at higher concentrations [4]: TRIS>MES>TAPS | pKa quoted in comparison of buffers with similar pKa values [2]: 8.4 | Meas. pKa [3]: 8.410

O=S(=O)(O)CCNC(CO)(CO)CO [TES (H+)]
pKa of buffer in cationic/anionic buffer combinations [2]: 7.5

NC(CO)(CO)CO [TRIS]
comparative growth behaviour between buffers [4]: DIMEGA (7.9) is better than TRIS | order of growth inhibition at higher concentrations [4]: TRIS>MES>TAPS | comparative growth of Pseudomonas [5]: all 5 cationic buffers being better than TRIS

CN(C)C[N+](C)(C)C [n = 1* (—CH2—)]
hydrolytic stability [6]: Limited hydrolytic stability | Change in pKa of Me2N— [6, 9]: ~−10.5 log K units

CN(C)CC[N+](C)(C)C [n = 2 (—CH2CH2—)]
Change in pKa of Me2N— [6, 9]: ~−3.7 log K units

CN(C)CCC[N+](C)(C)C [n = 3 (—CH2CH2CH2—)]
Change in pKa of Me2N— [6, 9]: ~−1.7 log K units

CN(C)CC(O)C[N+](C)(C)C (centres unmarked) [n = 3 (—CH2CH(OH)CH2—)]
Change in pKa of Me2N— [6, 9]: ~−1.9 log K units

CN(C)CC=CC[N+](C)(C)C [n = 4 (trans —CH2CH═CHCH2—)]
Change in pKa of Me2N— [6, 9]: ~−1.3 log K units

CN(C)CCCC[N+](C)(C)C [n = 4 (—CH2(CH2)2CH2—)]
Change in pKa of Me2N— [6, 9]: ~−0.9 log K units

CN(C)CC(O)C(O)C[N+](C)(C)C (centres unmarked) [n = 4 (—CH2CH(OH)CH(OH)CH2—)]
Change in pKa of Me2N— [6, 9]: ~−1.1 log K units

CN(C)CCCCC[N+](C)(C)C [n = 5 (—CH2(CH2)3CH2—)]
Change in pKa of Me2N— [6, 9]: ~−0.5 log K units

CN(C)CCCCCC[N+](C)(C)C [n = 6 (—CH2(CH2)4CH2—)]
Change in pKa of Me2N— [6, 9]: ~−0.3 log K units
